According to patent US11472798B2 (Mission Therapeutics Limited, priority 2014, dated 2022):

The compounds below were run against T1, UCHL1 (Homo sapiens, UniProt P09936) (assay: UCHL1 biochemical IC50 assay (fluorescence polarisation)). Details: 30 min enzyme/compound pre-incubation at room temp, read after 2 hr incubation, read-out: Activity range (UCHL1 biochemical IC50 assay).
T1 construct: made in house; host or cells: HEK293T
T1 sequence (P09936 1-223): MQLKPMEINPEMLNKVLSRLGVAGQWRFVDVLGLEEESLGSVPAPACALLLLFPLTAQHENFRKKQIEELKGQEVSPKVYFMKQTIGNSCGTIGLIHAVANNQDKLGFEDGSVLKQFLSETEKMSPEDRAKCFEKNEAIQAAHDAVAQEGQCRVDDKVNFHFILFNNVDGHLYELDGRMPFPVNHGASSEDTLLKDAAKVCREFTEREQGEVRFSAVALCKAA
Text: Biological Activity of Compounds of the Invention Abbreviations: TAMRA carboxytetramethylrhodamine PCR polymerase chain reaction PBS phosphate buffered saline EDTA ethylenediaminetetraacetic acid Tris 2-amino-2-(hydroxymethyl)-1,3-propanediol NP-40 Nonidet P-40, octylphenoxypolyethoxyethanol BSA bovine serum albumin In Vitro UCHL1 Inhibition Assay Expression and Purification of UCHL1
The UCHL1 construct was PCR amplified and cloned into a pFLAG-CMV-6a vector (Sigma-Aldrich) with an N-terminal FLAG tag. HEK293T cells were transfected with FLAG-UCHL1 using TransIT-LT1 transfection reagent (Mirus) according to the manufacturer's instructions. Cells were harvested 40 hours after transfection. Cells were washed once with PBS and scraped in lysis buffer (50 mM Tris, pH 7.5, 150 mM NaCl, 3 mM EDTA, 0.5% NP40, 10% glycerol, 5 mM beta-mercaptoethanol, protease inhibitors (complete mini, Roche) and phosphatase inhibitors (PhosSTOP mini, Roche). Lysates were incubated for 30 min on ice and centrifuged at 1200 rpm for 10 min at 4° C. Soluble supernatant was added to FLAG affinity resin (EZview Rad ANTI-FLAG M2 affinity gel, Sigma-Aldrich) equilibrated in low salt buffer (20 mM Tris, pH 7.5, 150 mM NaCl, 0.5 mM EDTA, 5 mM beta-mercaptoethanol) and incubated at 4° C. for 3 hours rotating. The resin was spun at 2000 rpm for 2 min and the supernatant was removed. The resin was washed two times with low salt buffer and one time with high salt buffer (20 mM Tris, pH 7.5, 500 mM NaCl, 0.5 mM EDTA, 5 mM beta-mercaptoethanol, protease inhibitors (complete mini, Roche) and phosphatase inhibitors (PhosSTOP mini, Roche). To elute the bound UCHL1, elution buffer (10 mM Tris, pH 7.5, 150 mM NaCl, 0.5 mM FDTA, 10% glycerol, 0.5% NP40, 5 mM beta-mercaptoethanol, 0.15 mg/ml 3×FLAG peptide (Sigma-Aldrich)) was added to the resin and incubated at 4° C. for 2.5 hours rotating. The resin was centrifuged at 4000 rpm for 30 seconds, and the supernatant containing purified FLAG-UCHL1 was removed and stored at −80° C.
UCHL1 Biochemical IC50 Assay
Dilution plates were prepared at 21 times the final concentration (2100 μM for a final concentration of 100 µM) in 50% DMSO in a 96-well polypropylene V-bottom plate (Greiner #651201). A typical 8-point dilution series to be 100, 30, 10, 3, 1, 0.3, 0.1, 0.03 μM final. Reactions were performed in duplicate in black 384 well plates (small volume, Greiner 784076) in a final reaction volume of 21 μl. Either 1 μl of 50% DMSO or diluted compound was added to the plate. UCHL1 was diluted in reaction buffer (20 mM Tris, pH 7.5, 100 mM NaCl, 0.05% Tween 20, 0.5 mg/ml BSA, 5 mM—beta mercaptoethanol) to the equivalent of 0.05 μl/well and 10 μl of diluted UCHL1 was added to the compound. Enzyme and compound were incubated for 30 min at room temp. Reactions were initiated by the addition of 50 nM of TAMRA labelled peptide linked to ubiquitin via an iso-peptide bond as fluorescence polarisation substrate. Reactions were read immediately after addition of substrate and following a 2 hr incubation at room temperature. Readings were performed on a Pherastar Plus (BMG Labtech). λ Excitation 540 nm; k Emission 590 nm.

Compound | IC50 [nM]
CNC(=O)c1cc(-c2cnc(NC(=O)[C@H]3CCN(C#N)C3)s2)ccc1Cl [Example 238, (S)-N-(5-(4-chloro-3-(methylcarbamoyl)phenyl)thiazol-2-yl)-1-cyanopyrrolidine-3-carboxamide] | < 1000
COc1cc(-c2ccc3nc(NC(=O)[C@H]4CCN(C#N)C4)cn3c2)c(OC)nn1 [Example 131, (S)-1-cyano-N-(6-(3,6-dimethoxypyridazin-4-yl)imidazo[1,2-a]pyridin-2-yl)pyrrolidine-3-carboxamide] | < 1000
N#CN1CC[C@H](C(=O)Nc2ncc(N3Cc4ccccc4C3)s2)C1 [Example 97, (S)-1-cyano-N-(5-(isoindolin-2-yl)thiazol-2-yl)pyrrolidine-3-carboxamide] | < 1000
CC1CC(C(=O)Nc2cn(-c3ccccc3)cn2)CN1C#N (mixture of isomers) [Example 89, I-cyano-5-methyl-N-(1-phenyl-1H-imidazol-4-yl)pyrrolidine-3-carboxamide] | 10000 to 30000
N#CN1CC[C@H](C(=O)Nc2ncc(-c3cccc4cn[nH]c34)s2)C1 [Example 215, (S)-N-(5-(1H-indazol-7-yl)thiazol-2-yl)-1-cyanopyrrolidine-3-carboxamide] | < 1000
N#CN1CC[C@H](C(=O)Nc2nc3c(s2)CN(C(=O)c2ccccn2)CC3)C1 [Example 193, (S)-1-cyano-N-(5-picolinoyl-4,5,6,7-tetrahydrothiazolo[5,4-c]pyridin-2-yl)pyrrolidine-3-carboxamide] | < 1000
Cc1[nH]ncc1-c1ccnc(NC(=O)[C@H]2CCN(C#N)C2)c1 [Example 295, (S)-1-cyano-N-(4-(5-methyl-1H-pyrazol-4-yl)pyridin-2-yl)pyrrolidine-3-carboxamide] | 1000 to 10000
(S)-1-cyano-N-(isoquinolin-yl)pyrrolidine-3-carboxamide [Example 58] | 1000 to 10000
N#CN1CC[C@H](C(=O)Nc2ncc(-c3cccc(-n4cccn4)c3)s2)C1 [Example 218, (S)-N-(5-(3-(1H-pyrazol-1-yl)phenyl)thiazol-2-yl)-1-cyanopyrrolidine-3-carboxamide] | < 1000
N#CN1CC[C@H](C(=O)Nc2cc(-c3cnc4nccn4c3)ccn2)C1 [Example 255, (S)-1-cyano-N-(4-(imidazo[1,2-a]pyrimidin-6-yl)pyridin-2-yl)pyrrolidine-3-carboxamide] | < 1000
N#Cc1ccc(-c2cnc(NC(=O)[C@H]3CCN(C#N)C3)s2)cc1F [Example 214, (S)-1-cyano-N-(5-(4-cyano-3-fluorophenyl)thiazol-2-yl)pyrrolidine-3-carboxamide] | < 1000
COC(=O)N1CCc2nc(NC(=O)[C@H]3CCN(C#N)C3)sc2C1 [Example 198, methyl (S)-2-(1-cyanopyrrolidine-3-carboxamido)-6,7-dihydrothiazolo[5,4-c]pyridine-5(4H)-carboxylate] | < 1000
C[C@H](c1ccccc1)n1cnc(NC(=O)[C@H]2CCN(C#N)C2)c1 [Example 167, (S)-1-cyano-N-(1-((R)-1-phenylethyl)-1H-imidazol-4-yl)pyrrolidine-3-carboxamide] | < 1000

Other lines, results leading:

IC50 [nM] | Compound
1000 to 10000 | N#CN1CC[C@H](C(=O)Nc2nc3ccc(-c4ccccc4)cc3s2)C1 [Example 122, (S)-1-cyano-N-(6-phenylbenzo[d]thiazol-2-yl)pyrrolidine-3-carboxamide]
10000 to 30000 | CC1CC(C(=O)Nc2cc(-c3ccccc3)[nH]n2)CN1C#N (mixture of isomers) [Example 90, 1-cyano-5-methyl-N-(5-phenyl-1H-pyrazol-3-yl)pyrrolidine-3-carboxamide]
10000 to 30000 | Cc1ccc(NC(=O)C2CCN(C#N)C2)nc1 (centres unmarked) [Example 26, 1-cyano-N-(5-methylpyridin-2-yl)pyrrolidine-3-carboxamide]
< 1000 | CS(=O)(=O)Nc1ccc(-c2cnc(NC(=O)[C@H]3CCN(C#N)C3)s2)cc1 [Example 217, (S)-1-cyano-N-(5-(4-(methylsulfonamido)phenyl)thiazol-2-yl)pyrro1idine-3-carboxamide]
< 1000 | N#CN1CCC(C(=O)Nc2ncc(N3CCc4ccccc43)s2)C1 (centres unmarked) [Example 95, 1-cyano-N-(5-(indolin-1-yl)thiazol-2-yl)pyrrolidine-3-carboxamide]
< 1000 | Cc1cccc(C)c1-c1ccc2nc(NC(=O)[C@H]3CCN(C#N)C3)sc2c1 [Example 287, (S)-1-cyano-N-(6-(2,6-dimethylphenyl)benzo[d]thiazol-2-yl)pyrrolidine-3-carboxamide]
10000 to 30000 | N#CN1CCC(C(=O)Nc2ccc(-c3ccccc3)nn2)C1 (centres unmarked) [Example 36, 1-cyano-N-(6-phenyl-pyridazin-3-yl)pyrrolidine-3-carboxamide]
< 1000 | CC(C)S(=O)(=O)N1CCn2nc(NC(=O)[C@H]3CCN(C#N)C3)cc2C1 [Example 240, (S)-1-cyano-N-(5-(isopropylsulfonyl)-4,5,6,7-tetrahydropyrazolo[1,5-a]pyrazin-2 yl)pyrrolidine-3-carboxamide]
< 1000 | COC[C@@H]1CCCN1c1cnc(NC(=O)[C@H]2CCN(C#N)C2)s1 [Example 100, (S)-1-cyano-N-(5-((S)-2-(methoxymethyl)pyrrolidin-1-yl)thiazol-2-yl)pyrrolidine-3-carboxamide]
< 1000 | Cc1noc(C)c1-c1ccc2nc(NC(=O)[C@H]3CCN(C#N)C3)cn2c1C [Example 137, (S)-1-cyano-N-(6-(3,5-dimethylisoxazol-4-yl)-5-methylimidazo[1,2-a]pyridin-2-yl)pyrrolidine-3-carboxamide]
< 1000 | N#CN1CC[C@H](C(=O)Nc2cn3cc(C(F)(F)F)ccc3n2)C1 [Example 270, (S)-1-cyano-N-(6-(trifluoromethyl)imidazo[1,2-a]pyridin-2-yl)pyrrolidine-3-carboxamide]
< 1000 | CS(=O)(=O)Nc1cccc(-c2cnc(NC(=O)C3CCN(C#N)C3)s2)c1 (centres unmarked) [Example 116, 1-cyano-N-(5-(3-(methyl-sulfonamido)phenyl)thiazol-2-yl)pyrrolidine-3-carboxamide]
1000 to 10000 | Cc1ccccc1-c1ccc(NC(=O)C2CCN(C#N)C2)nc1 (centres unmarked) [Example 136, 1-cyano-N-(5-(o-tolyl)pyridin-2-yl)pyrrolidine-3-carboxamide]
< 1000 | N#Cc1ccc(-c2cnc(NC(=O)[C@H]3CCN(C#N)C3)s2)cc1 [Example 118, (S)-1-cyano-N-(5-(4-cyanophenyl)thiazol-2-yl)pyrrolidine-3-carboxamide]
< 1000 | CC(C)S(=O)(=O)N1CCc2nc(NC(=O)[C@H]3CCN(C#N)C3)sc2CC1 [Example 277, (S)-1-cyano-N-(6-(isopropylsulfonyl)-5,6,7,8-tetrahydro-4H-thiazolo[4,5-d]azepin-2-yl)pyrrolidine-3-carboxamide]
1000 to 10000 | N#CN1CC[C@H](C(=O)Nc2cc3cccnc3cn2)C1 [Example 256, (S)-1-cyano-N-(1,7-naphthyridin-6-yl)pyrrolidine-3-carboxamide]
10000 to 30000 | CC(C)(C)c1cc(NC(=O)C2CCN(C#N)C2)no1 (centres unmarked) [Example 16, N-(5-(tert-butyl)isoxazol-1-3-yl)-1-cyano-pyrrolidine-3-carboxamide]
< 1000 | Cc1nn(C)cc1-c1ccc2nc(NC(=O)[C@H]3CCN(C#N)C3)sc2c1 [Example 288, (S)-1-cyano-N-(6-(1,3-dimethyl-1H-pyrazol-4-yl)benzo[d]thiazol-2-yl)pyrrolidine-3-carboxamide]
10000 to 30000 | N#CN1CCC(C(=O)Nc2cnc(-c3ccccc3)s2)C1 (centres unmarked) [Example 10, 1-cyano-N-(2-phenylthiazol-5-yl)pyrrolidine-3-carboxamide]
